Experimental data: paper PMC7583056, “Synthesis, Characterisation and In Vitro Anticancer Activity of Catalytically Active Indole-Based Half-Sandwich Complexes” (Molecules, 2020)

Experiments:
[1] = test system: 9-ethylguanine (9-EtG); assay: Binding constant towards 9-EtG by 1H-NMR titration; conditions: complex 1.1 mM in MeOD/D2O (1:1 v/v), non-linear fit
Protocol: Binding constant of complexes 1, 3 and 4 with 9-EtG were calculated using the non-linear ThordarsonFittingProgram (Table 1). The binding constant for complex 2 was not calculated due to solubility issues. The magnitude of the binding constants (10^3–10^4 M^−1) is low compared to the usually observed complexation constants in coordination chemistry (>>10^6 M^−1), and is in the range of binding constants observed in host-guest inorganic chemistry (e.g., via non-covalent interactions between a metalla-cage and an aromatic planar guest molecule).
The reactions of complexes 1–4 with 9-ethylguanine (9-EtG) and 9-methyladenine (9-MetA) were studied. MeOD solutions of complexes 1–4 (2.2 mM) were mixed with a solution of the corresponding nucleobase in D2O (4.4 mM) and the pH adjusted to 7.4 ± 0.2. Final concentrations of 1.1 mM for the complex and 2.2 mM for the nucleobase were obtained. ^1H-NMR spectra of the resulting mixture were recorded at t ≤ 10 min, 5 h and 24 h in MeOD/D2O (1:1 v/v).
A titration using 9-EtG at increasing concentrations was performed and the resulting samples were analysed using ^1H-NMR spectroscopy. Binding constants were calculated using the non-linear ThordarsonFittingProgram by plotting the chemical shift of the complex versus the concentration of 9-EtG. Alternatively, binding constant for complexes 3 and 4 was obtained by plotting the ratio of 9-EtG adduct/complex against the concentration of 9-EtG.

[2] = pKa determination by UV-Vis spectroscopy at increasing pH; assay type: physicochemical; conditions: 6% acetonitrile/water v/v; for pKa: UV-Vis, aqua adduct, pH 7–12
Protocol: The pKa values for the complexes were measured by dissolving the compounds in 6% acetonitrile/water v/v (aqua adduct formed) and by recording the UV-Vis spectra of the samples at increasing pH (pH 7–12). pKa values of the complexes were calculated using Origin 2018 by plotting the absorbance at the corresponding wavelength against the pH and fitting it to the Boltzmann equation to obtain the inflection point. For complexes 2–4, the pKa values were calculated to be around 10 (Materials and Methods section and Table 1). The pKa of compound 1 could not be calculated, as the absorbance bands for the aqua- and the hydroxo- compounds overlap; however, changes could only be observed at pH values higher than 10. These pKa values are high, although such a decrease in acidity has been previously reported (generally attributed to an increased electron density on the metal centre). As a consequence of such high pKa, only the aqua adduct of the metal complexes is expected to be present at physiological pH (7.4), thus favouring the reaction between the metal complexes with possible ligands such as nucleobases or proteins.
Complexes 1–4 were dissolved in acetonitrile/H2O 6:94 v/v and UV-Vis spectra of the sample were recorded increasing the pH (pH 7–12). pKa vales of the complexes were calculated using Origin 2018 by plotting the absorbance against the pH.

[3] = Transfer hydrogenation: reduction of NAD+ with formate as hydride donor (1H-NMR); conditions: for TOF (turnover frequency) for the reduction of NAD+: NAD+ 9 mol. equiv., formate 28 mol. equiv., pH* 7.4 ± 0.2, 310 K, complex 1.1 mM in MeOD/D2O (1:1 v/v)
Protocol: The ability of complexes 1–4 to oxidise NADH was investigated. The ^1H-NMR spectra show an increase of the NAD^+ signals over time (Figure 3). However, the reaction is very slow and after 8 h only around 10% of NADH is converted to NAD^+. […] The possibility of using compounds 1–4 as a transfer hydrogenation catalyst to reduce NAD^+ was investigated (Materials and Methods section). Compounds 1–4 reduced NAD^+ with turnover frequencies (TOF) between 6 and 15 h^−1 (Table 1), which is within the range of previously reported compounds [51, 53, 74, 75, 76]. Remarkably, under the conditions here reported (MeOD/D2O 1:1 v/v, 310 K, pH* 7.4 ± 0.2), the iridium complex 2 reduced nine molar equivalents of NAD^+ within the initial 10 min. However, no TOF could be calculated for this compound, owing to the speed of the reaction.
Transfer hydrogenation reactions with complexes 1–4, formate, and NAD^+ were studied by mixing a solution of the corresponding complex (2.2 mM, MeOD), sodium formate (137 mM, D2O) and NAD^+ (44 mM, D2O). Final concentrations of 1.1 mM for the complex, 10 mM for NAD^+ and 30 mM for NaHCO2 were obtained (molar ratio 1:9:28). The pH of the mixture was adjusted to 7.4 ± 0.2. ^1H-NMR spectra were recorded at 310 K every 5 min until completion of the reaction.
Molar ratios of NAD^+ and NADH were determined by integrating the area under the signals associated with NAD^+ (9.33 ppm) and 1,4-NADH (6.96 ppm). The turnover number (TON) for the reaction was calculated as follows: (1) TONI6.96/I6.96+[…][NAD^+]0/[Catalyst] where In is the integral of the signal at n ppm and [NAD^+]0 is the concentration of NAD^+ at the start of the reaction.

Row | SMILES | K9-EtG (binding constant towards 9-EtG) [1] | pKa [2] | TOF (turnover frequency) for the reduction of NAD+ [3] | Time to reduce nine molar equivalents of NAD+ ([3]; MeOD/D2O 1:1 v/v, 310 K, pH* 7.4 ± 0.2, formate 28 mol. equiv.) | pH above which changes in the UV-Vis spectra could be observed ([2]; pKa itself could not be calculated) | TOF (printed in Figure 3C) ([3]; 28 mol. equiv. formate, 9 mol. equiv. NAD+, MeOD/D2O 1/1 v/v, pH 7.4, 310 K, in 1/h)
1 | Cc1ccc(C(C)C)cc1.[Cl-].[Os+2].c1ccc(-c2cc3ccccc3[n-]2)nc1 [complex 4, [(p-cym)Os(ind-py)Cl]] | 95400 M⁻¹ | 10.15 ± 0.04 (λ = 355 nm) | 5.74 ± 0.35 h⁻¹ | – | – | –
2 | Cc1c(C)c(C)[c-](C)c1C.[Cl-].[Ir+3].c1ccc(-c2cc3ccccc3[n-]2)nc1 [complex 2, [Cp*Ir(ind-py)Cl]] | – | 9.59 ± 0.09 (λ = 300 nm) | – | ≤ 10 min | – | –
3 | Cc1ccc(C(C)C)cc1.[Cl-].[Ru+2].c1ccc(-c2cc3ccccc3[n-]2)nc1 [complex 3, [(p-cym)Ru(ind-py)Cl]] | 71600 M⁻¹ | 10.63 ± 0.03 (λ = 255 nm) | 7.95 ± 0.81 h⁻¹ | – | – | –
4 | Cc1c(C)c(C)[c-](C)c1C.[Cl-].[Rh+3].c1ccc(-c2cc3ccccc3[n-]2)nc1 [complex 1, [Cp*Rh(ind-py)Cl]] | 25600 M⁻¹ | – | 14.6 ± 0.7 h⁻¹ | – | higher than 10 | 14.63 ± 0.78
